Experimental data as given in patent US20250154525A1, “PLANT VIRUS MOVEMENT PROTEINS AND METHODS OF USING SAME” (Molecular Transfer, Inc., priority 2016, published 2025).

Assays:
HeLa Cells [1] = assay: GFP plasmid transfection with DOTMA/DOPE plus plant virus movement protein derived peptides (Example 2); format: cell-based; conditions: 1-6 μL of transfection reagents
Experimental: (§1) Cells were plated to so that on the day of transfection the cells were 70% confluent in 96 well tissue culture plates. A DOMTA/DOPE Lipid solution (1:1 molar ratio) at 2 mg/mL in water were mixed with an equal volume of plant virus movement protein derived peptides that had the nucleic acid binding moiety RRRRRRRRRRRR (SEQ ID NO:109) or KKKKKKKKKKKKKKKK (SEQ ID NO: 102) covalently linked to the N-terminus, or C-terminus of each peptide during peptide synthesis. Peptides were at 2 mg/mL in water. The DOTMA/DOPE and the plant virus movement peptide solution the was diluted 1 to 1 (v/v) in water. DOMTA/DOPE/PEPTIDE solutions were added to 0.1 mL of a plasmid DNA solution (EF1Alpha eGFP plasmid) at 10 μg/mL in OptiMEM.
(§2) All solutions were at room temperature. A volume of 0.2 mL of a 10 μg/mL solution of DNA was aliquoted into each well of a non-tissue cultured treated plate. 1-6 μL of transfection reagents were added to DNA solutions respectively. The transfection reagent and DNA solution was mixed by pipetting up and down twice. Transfection complexes were formed for 10 minutes. After 10 minutes, 0.01 or 0.02 mL of the transfection complex was added to cells. HuVEC, HeLa, human adult keratinocytes, human primary adult fibroblast, and A549 cells all respectively received 0.01 mL of the transfection complex. Human skeletal muscle cells, mouse C2C12 cells, and Jurkat, cells received 0.02 mL of the transfection complex. Cells were incubated for 42 hours at 37° C. at 5% CO2. Plates were read on a fluorescent plate reader. Cells were also examined visually under a microscope to assess the extent of transfection (in terms of the percent of cells transfected) with a fluorescent microscope. Other modes of analysis, for example quantification with B-galactosidase or luciferase reports plasmids can also be used.

[2] = system: Human Primary Fibroblast Cells; assay: as above; format: cell-based; conditions: 42 hours
Experimental: as §1, §2

HuVec Cells [3] = assay: as above; format: cell-based; conditions: 42 hours
Experimental: as §1, §2

some examined cell types = assay: Summary of Example 1: transfection expression and % cells transfected over the no peptide control; format: cell-based; conditions: on some examined cell types
How it was run: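 Cells at 70% confluence received DNA complexes of EF1Alpha eGFP plasmid with DOTMA/DOPE (1:1) plus oligo-Arg- or oligo-Lys-tagged peptide ligands, formed 10 min at room temperature. After 42 h at 37 °C, 5% CO2, GFP read by plate reader and % transfected cells judged microscopically, relative to lipid without peptide.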

C2C12 Cells = assay: GFP plasmid transfection with DOTMA/DOPE plus surface ligand peptide, fluorescent plate reader (Example 1); format: cell-based, mouse; conditions: DOTMA/DOPE + peptide linked to R12 or K16; EF1Alpha eGFP plasmid; 42 hours
How it was run: (§3)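 DOTMA/DOPE (1:1 molar) plus peptide bearing a poly-Arg or poly-Lys tag was complexed 10 min with EF1alpha eGFP plasmid in OptiMEM, then added to 70%-confluent cells (0.01 mL fibroblasts; 0.02 mL C2C12, Jurkat). After 42 h at 37 °C, GFP was read by plate reader and compared with DOTMA without ligand.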

HeLa Cells [4] = assay: as above; format: cell-based; conditions: DOTMA/DOPE + peptide linked to R12 or K16; EF1Alpha eGFP plasmid; 42 hours
NL-1 iPS Cells = assay: as above; format: cell-based; conditions: DOTMA/DOPE + peptide linked to R12 or K16; EF1Alpha eGFP plasmid; 42 hours
Jurkat Cells = assay: as above; format: cell-based; conditions: DOTMA/DOPE + peptide linked to R12 or K16; EF1Alpha eGFP plasmid; 42 hours
How it was run: as §3

HuVec Cells [5] = assay: as above; format: cell-based; conditions: DOTMA/DOPE + peptide linked to R12 or K16; EF1Alpha eGFP plasmid; 42 hours
How it was run: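 HuVEC cells in 96 well plates at 70% confluence were transfected with EF1Alpha eGFP plasmid using a 1:1 molar DOTMA/DOPE lipid mixed with a surface ligand peptide carrying a covalently attached nucleic acid binding moiety. Complexes formed for 10 minutes, 0.01 mL went to each well, cells were incubated 42 hours at 37° C., and fluorescence was read on a plate reader.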

Human Fibroblast Cells = assay: as above; format: cell-based; conditions: DOTMA/DOPE + peptide linked to R12 or K16; EF1Alpha eGFP plasmid; 42 hours
How it was run: as §3

HeLa Cells [6] = assay: GFP transfection with DOTMA/SEQ ID NO: 72 (fusogenic peptide)/peptide compared with Lipofectamine 2000; format: cell-based
How it was run: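 DOTMA/DOPE (1:1 molar) lipid mixed with polyarginine- or polylysine-tagged cell-surface-ligand peptide, complexed 10 min with EF1alpha eGFP plasmid at 10 μg/mL in OptiMEM, fusogenic peptide at 0.1 mg/mL final; HeLa cells ~70% confluent given 0.01 mL complex. GFP read by fluorescence plate reader and microscopy (% cells transfected) after 42 h at 37° C; Lipofectamine 2000 as comparator.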

[7] = 0.1 μL of DOTMA/SEQ ID NO: 72/Peptide in well of a 96 well plate
[8] = 0.2 μL of DOTMA/SEQ ID NO: 72/Peptide in well of a 96 well plate
[9] = 0.3 μL of DOTMA/SEQ ID NO: 72/Peptide in well of a 96 well plate
[10] = 0.4 μL of DOTMA/SEQ ID NO: 72/Peptide in well of a 96 well plate

| Substance | transfection expression and % cells transfected over the no peptide control (some examined cell types) | Relative Fluorescence of Transfection of C2C12 Cells (RF) (C2C12 Cells) | Relative Fluorescence of Transfection of HeLa Cells (RF) (HeLa Cells [4]) | Relative Fluorescence of Transfection of NL-1 iPS Cells (RF) (NL-1 iPS Cells) | Relative Fluorescence of Transfection of Jurkat Cells (RF) (Jurkat Cells) | Relative Fluorescence of Transfection of HuVec Cells (RF) (HuVec Cells [5]) | Relative Fluorescence of Transfection of Human Fibroblast Cells (RF) (Human Fibroblast Cells) | Relative Fluorescence DOTMA/SEQ ID NO: 72/Peptide, HeLa Cells (RF) (HeLa Cells [6]; [7]) | Relative Fluorescence DOTMA/SEQ ID NO: 72/Peptide, HeLa Cells (RF) (HeLa Cells [6]; [8]) | Relative Fluorescence DOTMA/SEQ ID NO: 72/Peptide, HeLa Cells (RF) (HeLa Cells [6]; [9]) | Relative Fluorescence DOTMA/SEQ ID NO: 72/Peptide, HeLa Cells (RF) (HeLa Cells [6]; [10]) | also measured |
| --- | --- | --- | --- | --- | --- | --- | --- | --- | --- | --- | --- | --- |
| 109 (RRRRRRRRRRRR) [compound 109] |  |  |  |  |  |  |  |  |  |  |  | Relative Fluorescence of Transfection of Hela Cells (HeLa Cells [1]; 2 µL transfection reagent): 5578; Relative Fluorescence of Transfection of Hela Cells (HeLa Cells [1]; 5 µL transfection reagent): 8007; Relative Fluorescence of Transfection of Hela Cells (HeLa Cells [1]; value column 1 of 6, head not given, 1 µL transfection reagent): 4157; Relative Fluorescence of Transfection of Hela Cells (HeLa Cells [1]; value column 3 of 6, head not given, 3 µL transfection reagent): 6606; Relative Fluorescence of Transfection of Hela Cells (HeLa Cells [1]; value column 4 of 6, head not given, 4 µL transfection reagent): 8520; Relative Fluorescence of Transfection of Human Primary Fibroblast Cells ([2]; Transfection Agent 1 μl): 28368 Rf; Relative Fluorescence of Transfection of Human Primary Fibroblast Cells ([2]; Transfection Agent 1.5 μl): 30373 Rf; Relative Fluorescence of Transfection of Human Primary Fibroblast Cells ([2]; Transfection Agent 2 μl): 29858 Rf; Relative Fluorescence of Transfection of Human Primary Fibroblast Cells ([2]; Transfection Agent 3 μl): 29895 Rf; Relative Fluorescence of Transfection of Human Primary Fibroblast Cells ([2]; Transfection Agent 4 μl): 30941 Rf; Relative Fluorescence of Transfection of Human Primary Fibroblast Cells ([2]; Transfection Agent 6 μl): 29386 Rf; Relative Fluorescence of Transfection of HuVEC Cells (HuVec Cells [3]; Transfection Agent 1 μl): 24603 Rf; Relative Fluorescence of Transfection of HuVEC Cells (HuVec Cells [3]; Transfection Agent 1.5 μl): 25735 Rf; Relative Fluorescence of Transfection of HuVEC Cells (HuVec Cells [3]; Transfection Agent 2 μl): 25421 Rf; Relative Fluorescence of Transfection of HuVEC Cells (HuVec Cells [3]; Transfection Agent 3 μl): 26641 Rf; Relative Fluorescence of Transfection of HuVEC Cells (HuVec Cells [3]; Transfection Agent 4 μl): 26529 Rf; Relative Fluorescence of Transfection of HuVEC Cells (HuVec Cells [3]; Transfection Agent 6 μl): 25907 Rf |
| 450 (TAGSCLRKFSCL) [compound 450] | increased transfection expression and the % cells transfected | 3795 | 21045 | 29856 | 8779 | 20911 | 6996 | 11962 | 17346 | 12553 | 10241 |  |
| 452 (CNYYSNSYSFWLASLNPER) [compound 452] | increased transfection expression and the % cells transfected | 21798 | 13888 | 10349 | 2554 | 1841 | 2779 | 6276 | 12671 | 12047 | 10918 |  |
| 454 (TGLSCLQRFTTM) [compound 454] | increased transfection expression and the % cells transfected | 9280 | 34550 | 18100 | 8224 | 13336 | 7568 | 34033 | 37099 | 27412 | 16023 |  |
